# Measured values as given in patent EP0091090A2, “Bipyridine substituted imidazolidene copper complex and its use in food-producing animals, and bipyridine, 2,2'-(2-imidazolidinylidene) di-copper complex and use in animals” (INTERNATIONAL MINERALS & CHEMICAL CORPORATION, priority 1982, dated 1983).
# Tested on: rumen fluid batch culture
# Test: Rumen fluid batch culture test: volatile fatty acid, gas (CH4 + H2), protein and amino acid accumulation (Example 2)
# Type: cell-based, steers
# Design: HFo (formate) / HAc (acetate) / HPr (propionate) / HiBu (isobutyrate) / HBu (butyrate) / HiVal (isovalerate) / Total / Caloric Value of H2 / Caloric Value of HFo / Caloric Value of HAc / Caloric Value of HPr / Caloric Value of HiBu / Caloric Value of HBu / Caloric Value of HiVal / Caloric Value of CH3: unit not given here
# Conditions: for Caloric Value of CH3 / Caloric Value of H2 / Caloric Value of HAc / Caloric Value of HBu / Caloric Value of HFo / Caloric Value of HPr / Caloric Value of HiBu / Caloric Value of HiVal / Caloric Value, Total (VFA's) / Total Cal in VFA & Gas: produced on Day 10; for CH4 produced on Day 10 / H2 produced on Day 10 / HAc (acetate) produced on Day 10 / HBu (butyrate) produced on Day 10 / HFo (formate) produced on Day 10 / HPr (propionate) produced on Day 10 / HiBu (isobutyrate) produced on Day 10 / HiVal (isovalerate) produced on Day 10 / Total VFA's produced on Day 10: total produced on Day 10
# Description: The above Formula IV composition was tested to determine its effectiveness as a feed additive for ruminants. The initial tests were in rumen fluid batch culture systems to determine the effect of the compound on volatile fatty acid/methane ratios (VFA/CH4). […] Test Procedure: A 50/50 mixture of ground corn and ground alfalfa was used as the substrate for the subject rumen fluid batch culture test. The compound (Formula IV ) was present in the rumen fluid in three separate test samples at 8.33, 25 and 75 ppm, respectively. On day 1, rumen fluid was obtained from mature fistulated steers on 50/50 concentrate/roughage diets. The rumen fluid (RF) was strained through three layers of gauze cloth and equilibrated with C02 gas. Wheaton serum vials (125 ml) were prepared ahead with 20 ml continuous batch buffer and 100 mg 50/50 ground corn/ground alfalfa. Controls and compounds (dissolved in acetone) were set up according to desired levels. The vials were kept under C02 gas until 20 ml of the strained RF was added. The vials were sealed and incubated at 39°C for 24 hours in a hot water bath. On successive days, gas samples (0.1 ml) were drawn for gas chromatography analysis before transferring 20 ml of the batch culture to another vial containing 20 ml of buffer, 100 mg substrate, and the corresponding compound. The remaining 20 ml was inoculated with 2 ml 6N HC1 and centrifuged at 15,000 rpm for 15 minutes. Ether extracts were prepared for volatile fatty acid (VFA) analysis. Some minor adjustments were made in the termperatures on the Hewlett-Packard 5750 Gas-Liquid Chromatograph used for VFA analysis when the glass column used was changed from 1/4 inch diameter to 1/8 inch diameter. Injection Port = 220°C Column Oven = 170°C Flame Detector = 250°C Only 4 minutes was needed to record the sample instead of the previous 7 minutes.
# [1] = all levels tested (8.33, 25 and 75 ppm), versus control
substance,measurement,setting,value
"2,2'-(4,5-diphenyl-2H-imidazol-2-ylidene)bispyridine with CuCl2(1/1) [Formula IV Compound]",CH4,"25 µg/ml, day 8",6 µ Moles
same,H2,"25 µg/ml, day 8",17 µ Moles
same,HAc (acetate),"25 µg/ml, day 8",20.38
same,HBu (butyrate),"25 µg/ml, day 8",8.39
same,HFo (formate),"25 µg/ml, day 8",2.20
same,HPr (propionate),"25 µg/ml, day 8",14.71
same,HiBu (isobutyrate),"25 µg/ml, day 8",2.73
same,HiVal (isovalerate),"25 µg/ml, day 8",0
same,Protein,"25 µg/ml, day 8",0 mg/mL
same,Total,"25 µg/ml, day 8",48.40
same,AA,"25 µg/ml, day 9",0.20 µ Moles/ml
same,CH4,"25 µg/ml, day 9",28 µ Moles
same,H2,"25 µg/ml, day 9",22 µ Moles
same,HAc (acetate),"25 µg/ml, day 9",20.91
same,HBu (butyrate),"25 µg/ml, day 9",5.82
same,HFo (formate),"25 µg/ml, day 9",1.78
same,HPr (propionate),"25 µg/ml, day 9",14.96
same,HiBu (isobutyrate),"25 µg/ml, day 9",1.21
same,HiVal (isovalerate),"25 µg/ml, day 9",0
same,Protein,"25 µg/ml, day 9",0.03 mg/mL
same,Total,"25 µg/ml, day 9",44.66
same,AA,"25 µg/ml, day 10",0.30 µ Moles/ml
same,CH4,"25 µg/ml, day 10",55 µ Moles
same,H2,"25 µg/ml, day 10",8 µ Moles
same,HAc (acetate),"25 µg/ml, day 10",21.76
same,HBu (butyrate),"25 µg/ml, day 10",2.06
same,HFo (formate),"25 µg/ml, day 10",1.00
same,HPr (propionate),"25 µg/ml, day 10",13.79
same,HiBu (isobutyrate),"25 µg/ml, day 10",0.01
same,HiVal (isovalerate),"25 µg/ml, day 10",0
same,Protein,"25 µg/ml, day 10",0 mg/mL
same,Total,"25 µg/ml, day 10",38.62
same,Caloric Value of CH3,25 µg/ml,11.59
same,Caloric Value of H2,25 µg/ml,0.55
same,Caloric Value of HAc,25 µg/ml,94.73
same,Caloric Value of HBu,25 µg/ml,0
same,Caloric Value of HFo,25 µg/ml,0.28
same,Caloric Value of HPr,25 µg/ml,92.13
same,Caloric Value of HiBu,25 µg/ml,0
same,Caloric Value of HiVal,25 µg/ml,0
same,"Caloric Value, Total (VFA's)",25 µg/ml,187.14
same,Total Cal in VFA & Gas,25 µg/ml,199.28 cal
same,CH4 produced on Day 10,25 μg/ml,55
same,H2 produced on Day 10,25 μg/ml,8
same,HAc (acetate) produced on Day 10,25 μg/ml,452.4
same,HBu (butyrate) produced on Day 10,25 μg/ml,0
same,HFo (formate) produced on Day 10,25 μg/ml,4.40
same,HPr (propionate) produced on Day 10,25 μg/ml,252.4
same,HiBu (isobutyrate) produced on Day 10,25 μg/ml,0
same,HiVal (isovalerate) produced on Day 10,25 μg/ml,0
same,Total VFA's produced on Day 10,25 μg/ml,709.2
same,Gross Cal Remaining in Feed,"75 µg/ml, Day 10, initial feed gross energy 800 kcal",350.70 cal
same,methane,"75 µg/ml, by day 10",inhibited completely
same,AA,"75 µg/ml, day 2",0.18 µ Moles/ml
same,CH4,"75 µg/ml, day 2",155 µ Moles
same,H2,"75 µg/ml, day 2",0 µ Moles
same,HAc (acetate),"75 µg/ml, day 2",33.48
same,HBu (butyrate),"75 µg/ml, day 2",8.18
same,HFo (formate),"75 µg/ml, day 2",0.95
same,HPr (propionate),"75 µg/ml, day 2",11.10
same,HiBu (isobutyrate),"75 µg/ml, day 2",0.95
same,HiVal (isovalerate),"75 µg/ml, day 2",0.69
same,Protein,"75 µg/ml, day 2",0 mg/mL
same,Total,"75 µg/ml, day 2",55.34
same,AA,"75 µg/ml, day 3",0.27 µ Moles/ml
same,CH4,"75 µg/ml, day 3",71 µ Moles
same,H2,"75 µg/ml, day 3",0 µ Moles
same,HAc (acetate),"75 µg/ml, day 3",28.66
same,HBu (butyrate),"75 µg/ml, day 3",15.10
same,HFo (formate),"75 µg/ml, day 3",0.80
same,HPr (propionate),"75 µg/ml, day 3",14.81
same,HiBu (isobutyrate),"75 µg/ml, day 3",3.81
same,HiVal (isovalerate),"75 µg/ml, day 3",0.44
same,Protein,"75 µg/ml, day 3",0.04 mg/mL
same,Total,"75 µg/ml, day 3",63.61
same,CH4,"75 µg/ml, day 4",74 µ Moles
same,H2,"75 µg/ml, day 4",0 µ Moles
same,HAc (acetate),"75 µg/ml, day 4",27.47
same,HBu (butyrate),"75 µg/ml, day 4",5.26
same,HFo (formate),"75 µg/ml, day 4",1.29
same,HPr (propionate),"75 µg/ml, day 4",18.71
same,HiBu (isobutyrate),"75 µg/ml, day 4",0.95
same,HiVal (isovalerate),"75 µg/ml, day 4",0.25
same,Total,"75 µg/ml, day 4",53.92
same,CH4,"75 µg/ml, day 5",74 µ Moles
same,H2,"75 µg/ml, day 5",0 µ Moles
same,HAc (acetate),"75 µg/ml, day 5",23.84
same,HBu (butyrate),"75 µg/ml, day 5",4.59
same,HFo (formate),"75 µg/ml, day 5",0.61
same,HPr (propionate),"75 µg/ml, day 5",17.24
same,HiBu (isobutyrate),"75 µg/ml, day 5",0.51
same,HiVal (isovalerate),"75 µg/ml, day 5",0.26
same,Total,"75 µg/ml, day 5",47.03
same,AA,"75 µg/ml, day 6",0.20 µ Moles/ml
same,CH4,"75 µg/ml, day 6",67 µ Moles
same,H2,"75 µg/ml, day 6",0 µ Moles
same,HAc (acetate),"75 µg/ml, day 6",25.01
same,HBu (butyrate),"75 µg/ml, day 6",1.78
same,HFo (formate),"75 µg/ml, day 6",0.51
same,HPr (propionate),"75 µg/ml, day 6",16.43
same,HiBu (isobutyrate),"75 µg/ml, day 6",0.39
same,HiVal (isovalerate),"75 µg/ml, day 6",0.58
same,Protein,"75 µg/ml, day 6",0.02 mg/mL
same,Total,"75 µg/ml, day 6",44.68
same,AA,"75 µg/ml, day 7",0.26 µ Moles/ml
same,CH4,"75 µg/ml, day 7",3 µ Moles
same,H2,"75 µg/ml, day 7",0 µ Moles
same,HAc (acetate),"75 µg/ml, day 7",19.59
same,HBu (butyrate),"75 µg/ml, day 7",9.9
same,HFo (formate),"75 µg/ml, day 7",3.17
same,HPr (propionate),"75 µg/ml, day 7",14.41
same,HiBu (isobutyrate),"75 µg/ml, day 7",0.83
same,HiVal (isovalerate),"75 µg/ml, day 7",0.10
same,Protein,"75 µg/ml, day 7",0.01 mg/mL
same,Total,"75 µg/ml, day 7",48.01
same,AA,"75 µg/ml, day 8",0.31 µ Moles/ml
same,CH4,"75 µg/ml, day 8",3 µ Moles
same,H2,"75 µg/ml, day 8",0 µ Moles
same,HAc (acetate),"75 µg/ml, day 8",17.86
same,HBu (butyrate),"75 µg/ml, day 8",11.25
same,HFo (formate),"75 µg/ml, day 8",3.52
same,HPr (propionate),"75 µg/ml, day 8",14.08
same,HiBu (isobutyrate),"75 µg/ml, day 8",2.61
same,HiVal (isovalerate),"75 µg/ml, day 8",0
same,Protein,"75 µg/ml, day 8",0 mg/mL
same,Total,"75 µg/ml, day 8",49.31
same,AA,"75 µg/ml, day 9",0.34 µ Moles/ml
same,CH4,"75 µg/ml, day 9",0 µ Moles
same,H2,"75 µg/ml, day 9",11 µ Moles
same,HAc (acetate),"75 µg/ml, day 9",18.93
same,HBu (butyrate),"75 µg/ml, day 9",9.21
same,HFo (formate),"75 µg/ml, day 9",2.61
same,HPr (propionate),"75 µg/ml, day 9",13.41
same,HiBu (isobutyrate),"75 µg/ml, day 9",3.16
same,HiVal (isovalerate),"75 µg/ml, day 9",0.26
same,Protein,"75 µg/ml, day 9",0 mg/mL
same,Total,"75 µg/ml, day 9",50.56
same,AA,"75 µg/ml, day 10",0.47 µ Moles/ml
same,CH4,"75 µg/ml, day 10",0 µ Moles
same,H2,"75 µg/ml, day 10",14 µ Moles
same,HAc (acetate),"75 µg/ml, day 10",18.71
same,HBu (butyrate),"75 µg/ml, day 10",8.16
same,HFo (formate),"75 µg/ml, day 10",2.52
same,HPr (propionate),"75 µg/ml, day 10",14.57
same,HiBu (isobutyrate),"75 µg/ml, day 10",3.74
same,HiVal (isovalerate),"75 µg/ml, day 10",0.27
same,Protein,"75 µg/ml, day 10",0 mg/mL
same,Total,"75 µg/ml, day 10",47.97
same,Caloric Value of CH3,75 µg/ml,0
same,Caloric Value of H2,75 µg/ml,0.96
same,Caloric Value of HAc,75 µg/ml,77.39
same,Caloric Value of HBu,75 µg/ml,74.05
same,Caloric Value of HFo,75 µg/ml,3.06
same,Caloric Value of HPr,75 µg/ml,114.76
same,Caloric Value of HiBu,75 µg/ml,31.54
same,Caloric Value of HiVal,75 µg/ml,3.80
same,"Caloric Value, Total (VFA's)",75 µg/ml,304.60
same,Total Cal in VFA & Gas,75 µg/ml,305.56 cal
same,CH4 produced on Day 10,75 μg/ml,0
same,H2 produced on Day 10,75 μg/ml,14
same,HAc (acetate) produced on Day 10,75 μg/ml,369.6
same,HBu (butyrate) produced on Day 10,75 μg/ml,142.4
same,HFo (formate) produced on Day 10,75 μg/ml,48.8
same,HPr (propionate) produced on Day 10,75 μg/ml,314.4
same,HiBu (isobutyrate) produced on Day 10,75 μg/ml,86.4
same,HiVal (isovalerate) produced on Day 10,75 μg/ml,5.6
same,Total VFA's produced on Day 10,75 μg/ml,994.2
same,Total energy in the end products,8.33 and 25 µg/ml,less than the control
same,butyrate produced,"8.33 and 75 µg/ml (not 25 µg/ml), versus control",more butyrate was produced
same,methane,8.33 ppm,decreased slightly
same,hydrogen production,"25 and 75 ppm, first 6 days",no hydrogen production
same,methane,"25 and 75 ppm, first 6 days",slight decreases
same,hydrogen produced,"25 and 75 ppm, seventh day",some hydrogen produced
same,methane,"25 and 75 ppm, seventh day",dropped drastically
same,increasing the number of calories available from the animals' feed,"75 ppm dosage level, Table 3",most effective amount
same,shift in volatile fatty acids produced,"all dosage levels, Table 2",desired shift in volatile fatty acids produced away from acetate towards propionate
same,Acetate,[1],decreased
same,propionate,[1],increased
same,activity in rumen fluid batch culture tests,tests of Examples 2 and 3,activity comparable to monensin
